Usually pIC50 stands for the negative decadic logarithm of the IC50, by convention in mol/L.

One assay addresses T1, SGK1 (Homo sapiens, UniProt O00141).
T1 sequence (O00141 1-431): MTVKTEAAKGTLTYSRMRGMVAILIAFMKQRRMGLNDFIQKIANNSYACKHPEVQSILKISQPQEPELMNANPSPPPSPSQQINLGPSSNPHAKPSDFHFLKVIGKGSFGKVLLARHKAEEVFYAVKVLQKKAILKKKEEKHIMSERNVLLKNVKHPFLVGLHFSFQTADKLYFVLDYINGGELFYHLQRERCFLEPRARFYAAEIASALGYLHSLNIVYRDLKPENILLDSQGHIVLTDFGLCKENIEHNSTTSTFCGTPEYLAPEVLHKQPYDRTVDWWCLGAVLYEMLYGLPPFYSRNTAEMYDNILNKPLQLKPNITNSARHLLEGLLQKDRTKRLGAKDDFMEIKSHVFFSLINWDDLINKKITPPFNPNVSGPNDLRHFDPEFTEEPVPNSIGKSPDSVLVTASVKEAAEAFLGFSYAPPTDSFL
The experiment in a line: SGK1 inhibition Assay B (Echo mass spectrometry of phosphorylated peptide product). The following applies: 60 min at room temperature. Format: biochemical.

A further assay has as its target T2, full length SGK1 (Homo sapiens, UniProt O00141).
T2 construct: 125 μM full length SGK1 (Life Technologies Part #PR7358A); purchased Life Technologies PR7358A
T2 sequence (O00141 1-431): T1 sequence (O00141 1-431)
The experiment in a line: SGK1 inhibition Assay A (Caliper LabChip electrophoretic separation of fluorescent peptide substrate and phosphorylated product). It is filed as biochemical. As to conditions: Assay A; 20 μM ATP, 40 min incubation; read-out: SGK1 IC50.

pIC50: −log10 of the molar value. Structures can show the parent of a compound that is named as a salt.

Turning to `CC(=O)N1CC=C(c2cc(N3CCC[C@@H](NC(=O)[C@]45CCC[C@H]4C5)C3)c3c(N)ncnn23)C1` (mixture of isomers) [Example 916, (cis)-N-[(3R)-1-[7-(1-acetyl-2,5-dihydro-1H-pyrrol-3-yl)-4-aminopyrrolo[2,1-f][1,2,4]triazin-5-yl]piperidin-3-yl]bicyclo[3.1.0]hexane-1-carboxamide], the negative-log IC50 (pIC50) on SGK1 was 7.25. `Cc1nc(OC2CCC(NC3CC3)CC2)c(C(=O)N[C@@H]2CCCN(c3cc(-c4ccc(C(N)=O)c(F)c4)n4ncnc(N)c34)C2)s1` (single isomer, unassigned) [Example 941]: the pIC50 at SGK1 is 9.00. Regarding `Cc1nc(OC2CCC(N3CCC3)CC2)c(C(=O)N[C@@H]2CCCN(c3cc(-c4ccc(C(N)=O)c(F)c4)n4ncnc(N)c34)C2)s1` (single isomer, unassigned) [Example 943], the negative-log IC50 (pIC50) on SGK1 is 8.70. Same read-out and setting: the figure for `CCN1CCC(Oc2nc(C)sc2C(=O)N[C@@H]2CCCN(c3cc(C4=CCN(C(C)=O)C4)n4ncnc(N)c34)C2)CC1(C)C` (single isomer, unassigned) [Example 946] is 7.92.

`CC(=O)N1CC=C(c2cc(N3CCC[C@@H](NC(=O)c4sc(Cl)cc4OC4CCN(C)C(C)(C)C4)C3)c3c(N)ncnn23)C1` (single isomer, unassigned) [Example 948] had a pIC50 on SGK1 of 8.70. `Cc1nc(OC2CC3CC2CN3C(C)C)c(C(=O)N[C@@H]2CCCN(c3cc(-c4ccc(-n5cnnn5)c(F)c4)n4ncnc(N)c34)C2)s1` (single isomer, unassigned) [Example 949] had a negative-log IC50 (pIC50) on SGK1 of 9.10. As for `CC(=O)N1CC=C(c2cc(N3CCC[C@@H](NC(=O)c4sc(Cl)cc4OC4CC5CC(C4)N(C)C5)C3)c3c(N)ncnn23)C1` (single isomer, unassigned) [Example 952], the negative-log IC50 (pIC50) against SGK1 was 8.15.

Consider `COC(=O)N1CC=C(c2cc(N3CCC[C@@H](NC(=O)c4sc(C)nc4OC4CC5CC(C4)N(C(C)C)C5)C3)c3c(N)ncnn23)C1` (single isomer, unassigned) [Example 953], for which the pIC50 at SGK1 was 8.15. With `Cc1nc(OC2COC3(CCNCC3)C2)c(C(=O)N[C@@H]2CCCN(c3cc(-c4ccc(C(N)=O)c(F)c4)n4ncnc(N)c34)C2)s1` (single isomer, unassigned) [Example 954], the pIC50 against SGK1 is 8.40. With `Cc1nc(OC2CC3CCC2CN3C)c(C(=O)N[C@@H]2CCCN(c3cc(-c4ccc(-n5cnnn5)nc4)n4ncnc(N)c34)C2)s1` (single isomer, unassigned) [Example 992], the pIC50 against SGK1 is 8.00. For the compound `Cc1nc(OC2CC3CCC2CN3CCO)c(C(=O)N[C@@H]2CCCN(c3cc(-c4cnc(C#N)c(F)c4)n4ncnc(N)c34)C2)s1` (single isomer, unassigned) [Example 993], at SGK1, the pIC50 was 8.70. `CCC1=C(c2cc(N3CCC[C@@H](NC(=O)c4sc(C)nc4O[C@H]4CC[C@@H](NC(C)CO)CC4)C3)c3c(N)ncnn23)COC1=O` (single isomer, unassigned) [Example 1019] had a pIC50 on SGK1 of 9.30. At SGK1, `CCC1=C(c2cc(N3CCC[C@@H](NC(=O)c4sc(C)nc4O[C@H]4CC[C@@H](NC(C)CO)CC4)C3)c3c(N)ncnn23)COC1=O` (single isomer, unassigned) [Example 1020] gave a pIC50 of 8.96.

At SGK1, `CCC1=C(c2cc(N3CCC[C@@H](NC(=O)c4sc(C)nc4OC4CCC(N5CC(O)C5)CC4)C3)c3c(N)ncnn23)COC1=O` (single isomer, unassigned) [Example 1021] showed a pIC50 of 9.15. Compound `CCC1=C(c2cc(N3CCC[C@@H](NC(=O)c4sc(C)nc4OC4CCC(N[C@@H](C)COC)CC4)C3)c3c(N)ncnn23)COC1=O` (single isomer, unassigned) [Example 1023] gave a negative logarithm of the IC50 (pIC50) at SGK1 of 9.10. Consider `CCC1=C(c2cc(N3CCC[C@@H](NC(=O)c4sc(C)nc4OC4CCC(N[C@H](C)COC)CC4)C3)c3c(N)ncnn23)COC1=O` (single isomer, unassigned) [Example 1024], for which the negative logarithm of the IC50 (pIC50) against SGK1 was 9.10. On the same count and under the same terms, the figure for `CC(=O)N1CC=C(c2cc(N3CCC[C@@H](NC(=O)c4sc(Cl)cc4OC4CCC(N5CCOCC5)CC4)C3)c3c(N)ncnn23)C1` (single isomer, unassigned; isomer 1) [Example 936] is 8.70; for `Cc1nc(O[C@@H]2CCC[C@H](N(C)C)C2)c(C(=O)N[C@@H]2CCCN(c3cc(-c4ccc(C(N)=O)c(F)c4)n4ncnc(N)c34)C2)s1` (single isomer, unassigned; isomer 1) [Example 939] it is 9.05.

Regarding `Nc1ncnn2c(-c3ccc(-n4cnnn4)c(F)c3)cc(N3CCC[C@@H](NC(=O)c4sc(Cl)cc4OC4CCC(O)CC4)C3)c12` (single isomer, unassigned; isomer 2) [Example 935], on SGK1, the pIC50 is 9.70. Turning to `COC(=O)N1CC=C(c2cc(N3CCC[C@@H](NC(=O)c4sc(C)nc4OC4CCNCC4)C3)c3c(N)ncnn23)C1` [Example 359, Methyl (R)-3-(4-amino-5-(3-(2-methyl-4-(piperidin-4-yloxy)thiazole-5-carboxamido)piperidin-1-yl)pyrrolo[2,1-f][1,2,4]triazin-7-yl)-2.5-dihydro-1H-pyrrole-1-carboxylate], the pIC50 against SGK1 was 8.52.

Take `COC(=O)N1CC=C(c2cc(N3CCC[C@@H](NC(=O)c4sc(C)nc4OC4CCN(C)CC4)C3)c3c(N)ncnn23)C1` [Example 360, Methyl (R)-3-(4-amino-5-(3-(2-methyl-4-((1-methylpiperidin-4-yl)oxy)thiazole-5-carboxamido)piperidin-1-yl)pyrrolo[2,1-f][1,2,4]triazin-7-yl)-2,5-dihydro-1H-pyrrole-1-carboxylate]: the pIC50 at SGK1 is 7.85. At SGK1, `COC(=O)N1CC=C(c2cc(N3CCC[C@@H](NC(=O)c4sc(C)nc4OC4CCN(C(C)C)CC4)C3)c3c(N)ncnn23)C1` [Example 361, Methyl (R)-3-(4-amino-5-(3-(4-((1-isopropylpiperidin-4-yl)oxy)-2-methylthiazole-5-carboxamido)piperidin-1-yl)pyrrolo[2,1-f][1,2,4]triazin-7-yl)-2,5-dihydro-1H-pyrrole-1-carboxylate] showed a pIC50 of 7.59. On the same count and under the same terms, for `CC(=O)N1CC=C(c2cc(N3CCC[C@@H](NC(=O)c4sc(C#N)cc4O[C@@H]4C[C@H]5CC[C@@H](C4)N5C)C3)c3c(N)ncnn23)C1` [Example 753] the value was 7.92; for `COC1=C(C(=O)N[C@@H]2CCCN(c3cc(C4=CCN(C(C)=O)C4)n4ncnc(N)c34)C2)CN(C)C1=O` [Example 754, (R)-N-(1-(7-(1-acetyl-2,5-dihydro-1H-pyrrol-3-yl)-4-aminopyrrolo[2,1-f][1,2,4]triazin-5-yl)piperidin-3-yl)-4-methoxy-1-methyl-5-oxo-2,5-dihydro-1H-pyrrole-3-carboxamide], 6.79. Compound `CCOC1=C(C(=O)N[C@@H]2CCCN(c3cc(C4=CCN(C(C)=O)C4)n4ncnc(N)c34)C2)CN(c2ccc(OC)cc2)C1=O` [Example 755, (R)-N-(1-(7-(1-acetyl-2,5-dihydro-1H-pyrrol-3-yl)-4-aminopyrrolo[2,1-f][1,2,4]triazin-5-yl)piperidin-3-yl)-4-ethoxy-1-(4-methoxyphenyl)-5-oxo-2,5-dihydro-1H-pyrrole-3-carboxamide] gave a pIC50 against SGK1 of 7.68.

`CCOC1=C(C(=O)N[C@@H]2CCCN(c3cc(C4=CCN(C(C)=O)C4)n4ncnc(N)c34)C2)CN(c2ccc(F)cc2F)C1=O` [Example 756] had a pIC50 on SGK1 of 7.28. Take `CCOC1=C(C(=O)N[C@@H]2CCCN(c3cc(C4=CCN(C(C)=O)C4)n4ncnc(N)c34)C2)CN(C2(C(F)(F)F)CC2)C1=O` [Example 757, (R)-N-(1-(7-(1-acetyl-2,5-dihydro-1H-pyrrol-3-yl)-4-aminopyrrolo[2,1-f][1,2,4]triazin-5-yl)piperidin-3-yl)-4-ethoxy-5-oxo-1-(1-(trifluoromethyl)cyclopro-pyl)-2,5-dihydro-1H-pyrrole-3-carboxamide]: the pIC50 at SGK1 was 7.05. As to `CCOC1=C(C(=O)N[C@@H]2CCCN(c3cc(C4=CCN(C(C)=O)C4)n4ncnc(N)c34)C2)CN(c2ccccc2)C1=O` [Example 758, (R)-N-(1-(7-(1-acetyl-2,5-dihydro-1H-pyrrol-3-yl)-4-aminopyrrolo[2,1-f][1,2,4]triazin-5-yl)piperidin-3-yl)-4-ethoxy-5-oxo-1-phenyl-2,5-dihydro-1H-pyrrole-3-carboxamide, TFA salt], the pIC50 against SGK1 was 6.84.

As for “methyl 3-(4-amino-5-((3R)-3-(5-chloro-3-((2-methylpiperidin-4-yl)oxy)thiophene-2-carboxamido)piperidin-1-yl)pyrrolo[2,1-f][1,2,4]triazin-7-yl)-2,5-dihydro-1H-pyrrole-1-carboxylate [Example 621]”, the pIC50 at full length SGK1 was 8.22. The same measure, in the same setting: for “methyl (R)-3-(4-amino-5-(3-(6-(4-methylpiperazin-1-yl)picolinamido)piperidin-1-yl)pyrrolo[2,1-f][1,2,4]triazin-7-yl)-2,5-dihydro-1H-pyrrole-1-carboxylate [Example 789]” the value was 7.77.

Regarding “tert-butyl (R)-3- ((2-((1-(4-amino- 7-(6-cyanopyridin-3- yl)pyrrolo[2,1-f] [1,2,4]triazin-5- yl)piperidin-3- yl)carbamoyl) benzo[b]thiophen- 3-yl)oxy)azetidine- 1-carboxylate [Example 672]”, on full length SGK1, the pIC50 was 7.19.

The values above are taken from US20260250290A1 (BRISTOL-MYERS SQUIBB COMPANY, priority 2023, published 2026).
